From ChEMBL document CHEMBL4680223, “Development of bivalent triarylalkene- and cyclofenil-derived dual estrogen receptor antagonists and downregulators” (Eur J Med Chem, 2020)
≈ marks a conversion by molar mass, not a printed value. Calls of active or inactive are those of the source. The calls are words filed in the database; no cut-off is given here.

How the values were obtained:
physchem = conditions: water
Description: Aqueous solubility of compound in water

Estrogen receptor beta [1] = target: T1, Estrogen receptor beta (Homo sapiens, UniProt Q92731); experiment: Agonist activity at recombinant human GST-tagged ERbeta assessed as increase in fluorescein-labelled coactivator PGC1 peptide recruitment at 1 uM by LanthaScreen TR-FRET assay
T1 sequence (Q92731 whole entry): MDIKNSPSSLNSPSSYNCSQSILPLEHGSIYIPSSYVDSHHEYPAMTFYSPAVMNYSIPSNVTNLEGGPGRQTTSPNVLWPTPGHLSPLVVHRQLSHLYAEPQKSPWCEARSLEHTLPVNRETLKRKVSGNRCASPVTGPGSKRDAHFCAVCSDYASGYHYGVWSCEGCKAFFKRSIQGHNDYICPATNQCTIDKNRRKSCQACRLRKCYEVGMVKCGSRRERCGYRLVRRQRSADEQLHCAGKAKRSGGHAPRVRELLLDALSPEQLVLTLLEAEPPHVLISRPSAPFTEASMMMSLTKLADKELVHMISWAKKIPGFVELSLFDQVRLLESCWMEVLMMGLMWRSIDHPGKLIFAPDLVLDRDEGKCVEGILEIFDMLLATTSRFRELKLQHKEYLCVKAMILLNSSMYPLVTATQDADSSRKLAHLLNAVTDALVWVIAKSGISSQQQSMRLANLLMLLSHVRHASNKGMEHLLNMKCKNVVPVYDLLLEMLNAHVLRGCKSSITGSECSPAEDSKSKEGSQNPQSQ

Estrogen receptor beta [2] = target: T1, Estrogen receptor beta; experiment: Antagonist activity at recombinant human GST-tagged ERbeta assessed as inhibition of E2-induced increase in fluorescein-labelled coactivator PGC1 peptide recruitment at 1 uM measured after 10 to 30 mins by LanthaScreen TR-FRET assay relative to control; conditions: filed as antagonist, time 10-30 min
Estrogen receptor beta [3] = target: T1, Estrogen receptor beta
Estrogen receptor beta [4] = target: T1, Estrogen receptor beta; experiment: Agonist activity at ERbeta (unknown origin) expressed in human U2OS cells at 0.1 to 1 uM measured after 21 hrs by dual luciferase reporter gene assay; type: cell-based; conditions: dose 0.1-1 µM
COS-7 [5] = experiment: Cytotoxicity against African green monkey COS7 cells assessed as reduction in cell metabolic activity up to 20 uM measured after 72 hrs by modified MTT based EZ4U assay; type: ADME; conditions: chlorocebus aethiops, cos-7, 72 h
Estrogen receptor [6] = target: T2, Estrogen receptor (Homo sapiens, UniProt P03372)
T2 sequence (P03372 whole entry): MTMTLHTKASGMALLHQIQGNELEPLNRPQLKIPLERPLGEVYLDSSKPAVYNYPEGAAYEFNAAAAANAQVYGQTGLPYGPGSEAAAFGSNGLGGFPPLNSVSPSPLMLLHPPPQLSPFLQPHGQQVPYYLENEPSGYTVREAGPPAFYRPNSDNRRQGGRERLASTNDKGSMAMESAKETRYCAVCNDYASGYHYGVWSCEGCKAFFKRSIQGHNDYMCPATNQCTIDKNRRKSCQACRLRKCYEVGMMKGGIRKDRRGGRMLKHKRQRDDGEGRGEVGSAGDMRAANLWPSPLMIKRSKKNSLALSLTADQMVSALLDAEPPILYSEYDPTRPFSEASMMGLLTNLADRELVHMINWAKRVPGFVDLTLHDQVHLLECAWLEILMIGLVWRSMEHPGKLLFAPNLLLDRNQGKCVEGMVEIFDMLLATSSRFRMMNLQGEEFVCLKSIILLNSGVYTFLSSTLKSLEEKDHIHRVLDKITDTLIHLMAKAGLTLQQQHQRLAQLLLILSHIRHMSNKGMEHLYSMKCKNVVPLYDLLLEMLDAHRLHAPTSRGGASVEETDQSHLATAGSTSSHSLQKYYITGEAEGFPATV

Estrogen receptor [7] = target: T2, Estrogen receptor; remark: listed apart in the source
[8] = Drug uptake in human MCF7 cells assessed per mg protein at 10 uM incubated for 24 hrs by fluorescence assay; type: ADME, cell-based; conditions: mcf7, 24 h
Estrogen receptor beta [9] = target: T1, Estrogen receptor beta; remark: listed apart in the source
Estrogen receptor beta [10] = target: T1, Estrogen receptor beta; experiment: Antagonist activity at recombinant human GST-tagged ERbeta assessed as inhibition of E2-induced increase in fluorescein-labelled coactivator PGC1 peptide recruitment at 100 nM measured after 30 mins by LanthaScreen TR-FRET assay relative to control; conditions: filed as antagonist
Estrogen receptor [11] = target: T2, Estrogen receptor; experiment: Agonist activity at ERalpha (unknown origin) expressed in human U2OS cells at 0.1 to 1 uM measured after 21 hrs by dual luciferase reporter gene assay; type: cell-based; conditions: dose 0.1-1 µM
[12] = Drug uptake in African green monkey COS7 cells assessed per mg protein at 10 uM incubated for 24 hrs by fluorescence assay; type: ADME; conditions: chlorocebus aethiops, cos-7, 24 h
MCF7 [13] = experiment: Antiproliferative activity against human MCF7 cells assessed as cell mass at 10 uM measured after 72 hrs by crystal violet staining based assay relative to control; type: functional
MCF7 [14] = experiment: cells; conditions: Homo sapiens, MCF7, 72 h
Description: Antiproliferative activity against human MCF7 cells assessed as reduction in cell mass measured after 72 hrs by crystal violet staining based assay

MCF7 [15] = experiment: Antiproliferative activity against human MCF7 cells assessed as cell mass at 50 nM measured after 72 hrs by crystal violet staining based assay relative to control; type: functional
COS-7 [16] = experiment: cells; conditions: Chlorocebus aethiops, COS-7, 72 h
Description: Cytotoxicity against African green monkey COS7 cells assessed as reduction in cell mass measured after 72 hrs by crystal violet staining based assay

[17] = target: T3, Estrogen receptor (Homo sapiens) (UniProt P03372); experiment: Selective estrogen receptor alpha degrader activity in human MCF7 cells assessed as down regulation of ERalpha expression at 1 uM measured after 4 hrs in presence of protease inhibitor MG-132 by Western blot analysis; type: cell-based
T3 sequence (whole entry): T2 sequence (P03372 whole entry)

Estrogen receptor beta [18] = target: T1, Estrogen receptor beta; experiment: Antagonist activity at recombinant human GST-tagged ERbeta assessed as inhibition of E2-induced increase in fluorescein-labelled coactivator PGC1 peptide recruitment at 1 uM measured after 10 mins by LanthaScreen TR-FRET assay; conditions: filed as antagonist
COS-7 [19] = experiment: Cytotoxicity against African green monkey COS7 cells assessed as reduction in cell metabolic activity up to 10 uM measured after 72 hrs by modified MTT based EZ4U assay; type: ADME; conditions: chlorocebus aethiops, cos-7, 72 h
MCF7 [20] = experiment: Antiproliferative activity against human MCF7 cells assessed as reduction in cell metabolic activity up to 10 uM measured after 72 hrs by modified MTT based EZ4U assay; type: functional; conditions: dose microM <=10, time 72.0 hrs
Estrogen receptor beta [21] = target: T1, Estrogen receptor beta; experiment: Antagonist activity at recombinant human GST-tagged ERbeta assessed as inhibition of E2-induced increase in fluorescein-labelled coactivator PGC1 peptide recruitment at 5 uM measured after 30 mins by LanthaScreen TR-FRET assay relative to control; conditions: filed as antagonist
MDA-MB-231 [22] = experiment: Antiproliferative activity against human MDA-MB-231 cells assessed as cell mass at 20 uM measured after 72 hrs by crystal violet staining based assay relative to control; type: functional
SK-BR-3 [23] = experiment: Antiproliferative activity against human SK-BR-3 cells assessed as reduction in cell mass at 10 uM measured after 72 hrs by crystal violet staining based assay relative to control; type: functional; parameters: scale not given: the % may be the effect or the level left
SK-BR-3 [24] = experiment: Antiproliferative activity against human SK-BR-3 cells assessed as cell mass at 20 uM measured after 72 hrs by crystal violet staining based assay relative to control; type: functional
MDA-MB-231 [25] = experiment: Antiproliferative activity against human MDA-MB-231 cells assessed as reduction in cell mass at 10 uM measured after 72 hrs by crystal violet staining based assay relative to control; type: functional; parameters: scale not given: the % may be the effect or the level left
MCF7 [26] = experiment: Antiproliferative activity against human MCF7 cells assessed as reduction in cell metabolic activity at 10 uM measured after 72 hrs by modified MTT based EZ4U assay relative to control; type: functional; parameters: scale not given: the % may be the effect or the level left

| Compound | solubility (physchem) | Activity (Estrogen receptor beta [1]) | IC50 (Estrogen receptor beta [3]) | Activity (Estrogen receptor beta [4]) | Activity (COS-7 [5]) | IC50 (Estrogen receptor [6]) | IC50 (Estrogen receptor [7]) | IC50 (Estrogen receptor beta [9]) | inhibition (Estrogen receptor beta [10]) | Activity (Estrogen receptor [11]) | Activity (COS-7 [19]) | further results |
| --- | --- | --- | --- | --- | --- | --- | --- | --- | --- | --- | --- | --- |
| CC/C(=C(/c1ccc(O)cc1)c1ccc(/C=C/C(=O)NCCCCNC(=O)/C=C/c2ccc(/C(=C(\CC)c3ccccc3)c3ccc(O)cc3)cc2)cc1)c1ccccc1 | 19 µM (≈ 15.1 µg/mL) | Not Active | 44 nM | Not Active | Non-Toxic | 18.9 nM | 290 nM | 215 nM | 50% | Not Active | – | inhibition (Estrogen receptor beta [2]): 100%; Drug uptake [8]: 4.67 nmol; Drug uptake [12]: 3.92 nmol |
| O=C(/C=C/c1ccc(C(=C2CCCCC2)c2ccc(O)cc2)cc1)NCCNC(=O)/C=C/c1ccc(C(=C2CCCCC2)c2ccc(O)cc2)cc1 | 6.5 µM (≈ 4.5 µg/mL) | Not Active | 27.5 nM | Not Active | – | – | – | 216 nM | – | – | – | – |
| C[C@]12CC[C@@H]3c4ccc(O)cc4C[C@@H](CCCCCCCCC[S+]([O-])CCCC(F)(F)C(F)(F)F)[C@H]3[C@@H]1CC[C@@H]2O (some centres undefined) [FULVESTRANT] | – | – | – | – | Non-Toxic | – | – | – | – | – | – | T/C (MCF7 [13]): 75.5%; IC50 (MCF7 [14]): 4.93 µM; T/C (MCF7 [15]): 64%; IC50 (COS-7 [16]): 34 µM |
| CC/C(=C(/c1ccc(O)cc1)c1ccc(/C=C/C(=O)NCCCCCNC(=O)/C=C/c2ccc(/C(=C(\CC)c3ccccc3)c3ccc(O)cc3)cc2)cc1)c1ccccc1 | 34 µM (≈ 27.4 µg/mL) | Not Active | 15.5 nM | Not Active | – | – | – | 256 nM | – | – | – | – |
| CC/C(=C(\c1ccc(O)cc1)c1ccc(/C=C/C(=O)O)cc1)c1ccccc1 | – | – | – | – | – | – | – | – | – | – | Non-Toxic | T/C (MCF7 [13]): 33%; Activity [17]: inactive; inhibition (Estrogen receptor beta [18]): Active; Activity (MCF7 [20]): inactive; inhibition (Estrogen receptor beta [21]): 50% |
| CC/C(=C(/c1ccc(O)cc1)c1ccc(OCCN(C)C)cc1)c1ccccc1 | – | – | – | – | Non-Toxic | – | – | – | – | – | – | IC50 (MCF7 [14]): 4.94 µM; T/C (MDA-MB-231 [22]): -80%; IC50 (COS-7 [16]): 8.69 µM; Activity (SK-BR-3 [23]): 58%; T/C (SK-BR-3 [24]): -81%; Activity (MDA-MB-231 [25]): 79% |
| CC/C(=C(/c1ccc(O)cc1)c1ccc(/C=C/C(=O)NCCCNC(=O)/C=C/c2ccc(/C(=C(\CC)c3ccccc3)c3ccc(O)cc3)cc2)cc1)c1ccccc1 | 24 µM (≈ 18.7 µg/mL) | Not Active | 22.2 nM | Not Active | – | 1.28 nM | 136 nM | 153 nM | 50% | Not Active | – | Activity [17]: Active; inhibition (Estrogen receptor beta [2]): 100% |
| CC/C(=C(/c1ccc(O)cc1)c1ccc(/C=C/C(=O)NCCNC(=O)/C=C/c2ccc(/C(=C(\CC)c3ccccc3)c3ccc(O)cc3)cc2)cc1)c1ccccc1 | > 40 µM | Not Active | 67.7 nM | Not Active | Non-Toxic | 15.1 nM | 260 nM | 78.7 nM | – | Not Active | – | – |
| O=C(/C=C/c1ccc(C(=C2CCCCC2)c2ccc(O)cc2)cc1)NCCCCNC(=O)/C=C/c1ccc(C(=C2CCCCC2)c2ccc(O)cc2)cc1 | 10 µM (≈ 7.21 µg/mL) | Not Active | 15.7 nM | Not Active | – | – | – | 54.8 nM | 50% | – | Non-Toxic | Activity (MCF7 [26]): 69%; Drug uptake [8]: 5.22 nmol; Drug uptake [12]: 11.7 nmol |
| O=C(/C=C/c1ccc(C(=C2CCCCC2)c2ccc(O)cc2)cc1)NCCCCCNC(=O)/C=C/c1ccc(C(=C2CCCCC2)c2ccc(O)cc2)cc1 | 10 µM (≈ 7.35 µg/mL) | – | – | – | – | – | – | – | – | – | Non-Toxic | Activity (MCF7 [26]): 50% |
| CC/C(=C(/c1ccc(O)cc1)c1ccc(/C=C/C(=O)NCCN)cc1)c1ccccc1.O=C(O)C(F)(F)F.O=C(O)C(F)(F)F.O=C(O)C(F)(F)F | – | – | – | – | Non-Toxic | – | – | – | – | Not Active | – | Drug uptake [8]: 35.3 nmol; Drug uptake [12]: 33.7 nmol |
| O=C(/C=C/c1ccc(C(=C2CCCCC2)c2ccc(O)cc2)cc1)NCCCNC(=O)/C=C/c1ccc(C(=C2CCCCC2)c2ccc(O)cc2)cc1 | 15.4 µM (≈ 10.9 µg/mL) | Not Active | 34 nM | Not Active | – | 1.67 nM | 565 nM | 304 nM | 50% | Not Active | Non-Toxic | Activity (MCF7 [26]): 53% |
